Holding throughout (format): in vivo
The test system of one experiment is Aphis craccivora. Put plainly: Activity against Aphis craccivora (mixed population, contact/feeding), comparison with state of the art. To be noted: for Death rate (%) after 5 days: pea seedlings, spray. The method, then:
Comparison of the Insecticidal Activity of Compounds According to the Invention with the Structurally Closest Compound from the State of the Art (Compound No. 39 Described on Page 66 of WO2009/149858): Example B8: Activity Against Aphis craccivora (mixed population, contact/feeding) Pea seedlings, infested with an aphid population of mixed ages, were treated with diluted test solutions in a spray chamber. […]

Experiment [1] has as its system Tetranychus urticae (two-spotted spider mite). The experiment can be described thus: Activity against Tetranychus urticae (mixed population, feeding/residual contact, preventive). To be noted: foliar, 192 h, bean leaf discs, 8 days. The source says: Example B7: Activity Against Tetranychus urticae (Two-Spotted Spider Mite) (mixed population, feeding/residual contact activity, preventive) Bean leaf discs on agar in 24-well microtiter plates are sprayed with test solutions. After drying, the leaf discs are infested with mite populations of mixed ages. 8 days later, discs are checked for egg mortality, larval mortality, and adult mortality.

The subject of experiment [2] is Plutella xylostella (diamond back moth). The experiment can be described thus: Plutella xylostella (larvicide, feeding/residual contact, preventive). The conditions noted are these: 200 ppm; artificial diet, L2 larvae, 5 days incubation. The method, then: Example B3: Plutella xylostella (Diamond Back Moth) (larvicide, feeding/residual contact activity, preventive) 24-well microtiter plate (MTP) with artificial diet was treated with test solutions by pipetting. After drying, the MTP's were infested with larvae (L2) (10-15 per well). After an incubation period of 5 days, samples were checked for larval mortality, antifeedant and growth regulation.

In experiment [3] the test system is Myzus persicae (green peach aphid). Put plainly: Activity against Myzus persicae (mixed population, feeding/residual contact, preventive). To be noted: foliar, 144 h, sunflower leaf discs, 6 days incubation. How it is done: Example B4: Activity Against Myzus Persicae (Green Peach Aphid) (mixed population, feeding/residual contact activity, preventive) Sunflower leaf discs were placed on agar in a 24-well microtiter plate and sprayed with test solutions. After drying, the leaf discs were infested with an aphid population of mixed ages. After an incubation period of 6 days, samples were checked for mortality and special effects (e.g. phytotoxicity).

Experiment [4] shares this test system. Put plainly: Activity against Myzus persicae (mixed population, systemic/feeding, curative). To be noted: 144 h, roots of pea seedlings in test solution, 6 days. The source says: Example B5: Activity Against Myzus persicae (Green Peach Aphid) (mixed population, systemic/feeding activity, curative) Roots of pea seedlings, infested with an aphid population of mixed ages, were placed directly in the test solutions. 6 days after introduction, samples were checked for mortality and special effects on the plant.

Experiment [5] concerns Spodoptera littoralis (Egyptian cotton leafworm). Put plainly: Activity against Spodoptera littoralis (larvicide, feeding/residual contact, preventive). To be noted: 200 ppm; cotton leaf discs, L1 larvae, 3 days after treatment. The source says: Example B1: Activity Against Spodoptera littoralis (Egyptian Cotton Leafworm) (larvicide, feeding/residual contact activity, preventive) Cotton leaf discs were placed on agar in a 24-well microtiter plate and sprayed with test solutions. After drying, the leaf discs were infested with 5 L1 larvae. The samples were checked for mortality, repellent effect, feeding behaviour, and growth regulation 3 days after treatment.

Regarding `Cc1nc(-c2cccnc2)sc1C(=O)NCC(F)(F)F` [Comp. 39, reference compound], the “Death rate (%) after 5 days” value turned out to be 35% in the experiment on Aphis craccivora (3 ppm), 85% in the experiment on Aphis craccivora (12.5 ppm), 99% in the experiment on Aphis craccivora (25 ppm) and 99% with Aphis craccivora (50 ppm). For orientation: pest or weed control means the degree to which the test organism was suppressed or injured, in per cent. Lower therefore signals a weak effect. In experiment [1], `Clc1csc(C2C=CC=NC2c2sc(-c3cccnc3)nc2Cl)n1` (centres unmarked) [Compound 1.001] gave a pest or weed control at 200 ppm of more than 80%. Moreover, the activity entry in experiment [2] is listed as “over 80%”. The molecule `O=C(NCC(F)(F)F)c1sc(-c2cccnc2)nc1Cl` [Compound 1.005] gave a pest or weed control at 200 ppm in experiment [3] of more than 80%. Moreover, the “Death rate (%) after 5 days” value is recorded as 0% in the experiment with Aphis craccivora (3 ppm), 0% in the experiment with Aphis craccivora (12.5 ppm), 30% in the experiment on Aphis craccivora (25 ppm) and 90% with Aphis craccivora (50 ppm). Also, the “insecticidal action on Aphis craccivora compared with the compound from the state of the art” value in the experiment with Aphis craccivora (comparison with Comp. 39, especially at 25, 12.5 and 3 ppm) is on record as “substantially better insecticidal action”.

With `O=C(NC1CSC1)c1sc(-c2cccnc2)nc1Cl` [Compound 1.007], the pest or weed control at 200 ppm in experiment [3] is more than 80%. For the same molecule, the pest or weed control at 24 ppm in experiment [4] was more than 80%. Molecule `Clc1cccc(-c2sc(-c3cccnc3)nc2Cl)n1` [Compound 1.011] displayed a pest or weed control at 200 ppm in experiment [3] of more than 80%. Same read-out and setting: the figure for `CS(=O)(=O)c1ccc(CNC(=O)c2sc(-c3cccnc3)nc2Cl)cc1` [Compound 1.021] is more than 80%; for `O=C(NCC1CCCO1)c1sc(-c2cccnc2)nc1Cl` (centres unmarked) [Compound 1.026] it is more than 80%. Same read-out and setting: the figure for `O=C(NCc1ccc2c(c1)OCCO2)c1sc(-c2cccnc2)nc1Cl` [Compound 1.038] is more than 80%; for `CC(=O)NCCNC(=O)c1sc(-c2cccnc2)nc1Cl` [Compound 1.039] it is more than 80%; for `O=C(Nc1cccc2ncccc12)c1sc(-c2cccnc2)nc1Cl` [Compound 1.053] it is more than 80%. The same measure, in the same setting: the figure for `Cc1cc(NC(=O)c2sc(-c3cccnc3)nc2Cl)n(C)n1` [Compound 1.069] is more than 80%; for `Cc1cc(O)nc(NC(=O)c2sc(-c3cccnc3)nc2Cl)n1` [Compound 1.072] it is more than 80%; for `O=C(Nc1ccc(Oc2ccccc2)nc1)c1sc(-c2cccnc2)nc1Cl` [Compound 1.079] it is more than 80%. With `O=C(NC1CS(=O)(=O)C1)c1sc(-c2cccnc2)nc1Cl` [Compound 1.085], the pest or weed control at 200 ppm in experiment [3] was more than 80%.

The molecule `CSCC(C)(C)NC(=O)c1sc(-c2cccnc2)nc1Cl` [Compound 1.086] registered a pest or weed control at 200 ppm in experiment [3] of more than 80%. Also, the pest or weed control at 24 ppm in experiment [4] was more than 80%. In experiment [3], `O=C(NC1CCSC1)c1sc(-c2cccnc2)nc1Cl` (centres unmarked) [Compound 1.088] came in with a pest or weed control at 200 ppm of more than 80%. In experiment [4], this molecule displayed a pest or weed control at 24 ppm of more than 80%. Turning to `O=C(NC1C[S+]([O-])C1)c1sc(-c2cccnc2)nc1Cl` (centres unmarked) [Compound 1.089], in experiment [3], the pest or weed control at 200 ppm was more than 80%. The molecule `O=C(NC1C[S+]([O-])C1)c1sc(-c2cccnc2)nc1Cl` (centres unmarked) [Compound 1.090] yielded a pest or weed control at 24 ppm in experiment [4] of more than 80%. Same read-out and setting: the figure for `CCN1OCC(NC(=O)c2sc(-c3cccnc3)nc2Cl)C1=O` (centres unmarked) [Compound 1.093] is more than 80%. In experiment [3], `O=C(NCCC1CS(=O)(=O)C1)c1sc(-c2cccnc2)nc1Cl` [Compound 1.094] came in with a pest or weed control at 200 ppm of more than 80%. In experiment [3], `O=C(NC1CON(CC(F)(F)F)C1=O)c1sc(-c2cccnc2)nc1Cl` (centres unmarked) [Compound 1.095] showed a pest or weed control at 200 ppm of more than 80%. The same molecule returned a pest or weed control at 24 ppm in experiment [4] of more than 80%. In the case of `O=C(c1sc(-c2cccnc2)nc1Cl)N1CCC[C@H]1COc1c(Cl)cc(Cl)cc1Cl` [Compound 1.096], in experiment [1], the pest or weed control at 200 ppm is more than 80%. `C[C@@H](NC(=O)c1sc(-c2cccnc2)nc1Cl)C(F)(F)F` [Compound 1.100] yielded a pest or weed control at 200 ppm in experiment [3] of more than 80%. The same measure, in the same setting: to `O=C(NC1(C2CC2)CC1)c1sc(-c2cccnc2)nc1Cl` [Compound 1.119] belongs more than 80%. Molecule `CON1CCC(NC(=O)c2sc(-c3cccnc3)nc2Cl)CC1` [Compound 1.120] had a pest or weed control at 200 ppm in experiment [3] of more than 80%. The molecule also had a pest or weed control at 24 ppm in experiment [4] of more than 80%.

As to `CN(Cc1ccc(Cl)nc1)C(=O)c1sc(-c2cccnc2)nc1Cl` [Compound 1.124], the pest or weed control at 200 ppm in experiment [1] is more than 80%. Take `COCC#CC(C)(C)NC(=O)c1sc(-c2cccnc2)nc1Cl` [Compound 1.130]: in experiment [3], the pest or weed control at 200 ppm was more than 80%. Consider `CC(C)(NC(=O)c1sc(-c2cccnc2)nc1Cl)C(=O)c1ccc(Cl)cc1` [Compound 1.131], for which, in experiment [1], the pest or weed control at 200 ppm is more than 80%. For the molecule `CC(C)(NC(=O)c1sc(-c2cccnc2)nc1Cl)C(=O)c1cccc(Br)c1` [Compound 1.132], in experiment [1], the pest or weed control at 200 ppm is more than 80%. Still for that read-out and setting: to `COC(=O)c1ccc(NC(=O)c2sc(-c3cccnc3)nc2Cl)nc1` [Compound 1.138] belongs more than 80%. The molecule `CCCCNC(=O)c1sc(-c2cccnc2)nc1Cl` [Compound 1.142] came in with a pest or weed control at 200 ppm in experiment [3] of more than 80%.

As to `CC1(NC(=O)c2sc(-c3cccnc3)nc2Cl)CSC1` [Compound 1.143], in experiment [4], the pest or weed control at 24 ppm was more than 80%. As to `O=C(NC1CCC1)c1sc(-c2cccnc2)nc1Cl` [Compound 1.144], in experiment [3], the pest or weed control at 200 ppm was more than 80%. For the molecule `C[S+]([O-])CCNC(=O)c1sc(-c2cccnc2)nc1Cl` (centres unmarked) [Compound 1.145], the pest or weed control at 200 ppm in experiment [3] is more than 80%. Besides, the pest or weed control at 24 ppm in experiment [4] is more than 80%. With `CSCCNC(=O)c1sc(-c2cccnc2)nc1Cl` [Compound 1.146], the pest or weed control at 200 ppm in experiment [3] was more than 80%. This molecule also gave a pest or weed control at 24 ppm in experiment [4] of more than 80%. Regarding `O=C(NCC1CCS1)c1sc(-c2cccnc2)nc1Cl` (centres unmarked) [Compound 1.147], the pest or weed control at 200 ppm in experiment [3] was more than 80%. This molecule showed a pest or weed control at 24 ppm in experiment [4] of more than 80%. In the case of `O=C(NCCC1CSC1)c1sc(-c2cccnc2)nc1Cl` [Compound 1.148], in experiment [3], the pest or weed control at 200 ppm is more than 80%. In experiment [4], this molecule returned a pest or weed control at 24 ppm of more than 80%. For `CC(C)(C)NC(=O)c1sc(-c2cccnc2)nc1Cl` [Compound 1.149], in experiment [3], the pest or weed control at 200 ppm was more than 80%. In the case of `COCC(C)(C#N)NC(=O)c1sc(-c2cccnc2)nc1Cl` (centres unmarked) [Compound 1.150], in experiment [3], the pest or weed control at 200 ppm was more than 80%. Same read-out and setting: to `C#CC(C)(C)NC(=O)c1sc(-c2cccnc2)nc1Cl` [Compound 1.152] belongs more than 80%; to `CC#CC(C)(C)NC(=O)c1sc(-c2cccnc2)nc1Cl` [Compound 1.153], more than 80%. With `COC(c1ccc(Cl)cc1Cl)C(C)NC(=O)c1sc(-c2cccnc2)nc1Cl` (centres unmarked) [Compound 1.156], the activity entry in experiment [5] is reported as “over 80%”. The molecule further gave a pest or weed control at 200 ppm in experiment [1] of more than 80%.

Turning to `COc1cc(-c2sc(-c3cccnc3)nc2Cl)nc(OC)n1` [Compound 1.160], in experiment [1], the pest or weed control at 200 ppm is more than 80%.

For the origin of these results see patent US9756858B2, “Insecticides” (Syngenta Participations AG, priority 2011, dated 2017).
